A short description of series [1]: Photostability order of commercial dyes. The class given is physicochemical. The settings on record: derived from the references to Table 1. The source says: Cytochem. 2003, 51, 1699-1712], and only in 2007 its structure has been reported [B. Agnew, K. R. Gee, T. G. Nyberg (Invitrogen), US Pat. 2007/0249014]. Along with rhodamines, the following substance classes were considered as leads for developing of the new fluorescent dyes: BODIPY® derivatives (represented by BODYPY® 630/650 in FIG. 4), carbopyronines (Atto 635 and 647), cyanine dyes (Cy® 5 and Alexa 647), structurally related hybrids of cyanine dyes and benzopyranes (DY-630/635/650) and oxazines (Evoblue 30). BODIPY® derivatives have a substantial drawback: sometimes, fluorescence intensity of their bioconjugates is not directly proportional to a number of labelled sites [R. P. Haugland, A Guide to Fluorescent Probes and Labelling Technologies, Invitrogen Corp., Carlsbad, 2005, p. 53]. Moreover, it is difficult to chemically modify a BODIPY residue in such a way that it becomes water-soluble and more photostable. Carbopyronines have been extensively studied by Drexhage et al. [e.g. A. Zilles, J. Arden-Jacob, K.-H. Drexhage, N. U. Kemnitzer, M. Hammers-Schneider (Atto-tec GmbH), WO 2005/003086 (13 Jan. 2005)]. The carbopyronine dye Atto 647N has been widely used for labelling in many “nanoscopic” studies. Quite recently first STED images of the living cells were recorded at a rate of 28 frames per seconds using this dye [V. Westphal, S. O. Rizzoli, M. A. Lauterbach, D. Kamin, R. Jahn, S. W. Hell, Science 2008, 320, 246-249]. In the course of this study, the movements of synaptic vesicles inside the axons of cultured neurons were recorded with a resolution of ca. 60 nm. […] However, it is not easy to further improve the properties of the carbopyronine dye Atto 647N and make it more hydrophilic. […] Lower photostability and moderate Φfl-values of cyanine dyes make them inappropriate as lead structures. Short lifetimes of the excited states and presumably low Φfl-values of oxazines (e.g. Evoblue 30), as well as their moderate photostability, make the optimization of their properties not very promising.

For series [2] the following is noted: cited from earlier work.
The conditions of series [3]: cited from earlier work. This is another data set of the same source.
Series [4] in a line: UV-visible absorption and fluorescence spectra of the dyes of the invention. In kind it is physicochemical. The settings on record: for ε · 10^−5 / λmax (abs.) / λmax (fl.): solvent MeOH. The procedure: UV-visible absorption spectra were recorded on a Varian Cary 4000 UV-Vis spectrophotometer, and fluorescence spectra on a Varian Cary Eclipse fluorescence spectrophotometer. Reactions were carried out upon magnetic stirring in Schlenk flasks equipped with septa or reflux condensers with bubble-counters under argon using a standard manifold with vacuum and argon lines. All NMR spectra are referenced to tetramethylsilane as an internal standard (δ=0 ppm) using the signals of the residual protons of CHCl3 (7.26 ppm) in CDCl3, CHD2OD (3.31 ppm) in CD3OD, HOD (4.75 ppm) in D2O, [D5]acetone (2.04 ppm) in [D6]acetone or [D5]DMSO (2.50 ppm) in [D6]DMSO. Multiplicities of signals are described as follows: s=singlet, br. s=broad singlet, d=doublet, t=triplet, q=quartet, quint=quintet, m=multiplet, mc=centrosymmetrical multiplet. Coupling constants (J) are given in Hz. Multiplicities in the ^13C NMR spectra were determined by APT (Attached Proton Test) measurements. Low resolution mass spectra (electro spray ionization, ESI) were obtained with LCQ and ESI-TOF mass-spectrometers (MICROTOF (focus), Fa. Bruker). The MICROTOF spectrometer equipped with ESI ion source Apollo and direct injector with LC autosampler Agilent RR 1200 was used for obtaining high resolution mass spectra (ESI-HRMS). ESI-HRMS were obtained also on APEX IV spectrometer (Bruker). HPLC system (Knauer): Smartline pump 1000 (2×), UV detector 2500, column thermostat 4000 (25° C.), mixing chamber, injection valve with 20 and 100 μL loop for the analytical and preparative columns, respectively; 6-port-3-channel switching valve; analytical column: Eurospher-100 C18, 5 μm, 250×4 mm, 1.1 mL/min; preparative column: Eurospher-100-5 C18, 5 μm, 250×8 mm, 3.7 mL/min; solvent A: water+0.1% v/v trifluoroacetic acid (TFA); solvent B: MeCN+0.1% v/v TFA; detection at 636 nm (if not stated otherwise). Normal phase analytical TLC was performed on MERCK ready-to-use plates with silica gel 60 (F254) and reversed phase TLC—on RP-18W/UV254 precoated TLC plates (Macherey-Nagel). Preparative TLC was performed on MERCK HPTLC silica gel 60 plates (10×10 cm, layer thickness 0.2 mm). Column chromatography: MERCK silica gel, grade 60, 0.04-0.063 mm or Polygoprep 60-50 C18 (Macherey-Nagel).

A short description of series [5]: Fluorescence quantum yield, Atto 633 as reference. The settings on record: Atto 633 as reference (Φfl = 64% in aqueous buffer). In kind it is physicochemical. An excerpt: Moreover, intersystem crossing rates (kISC) and rates of the T1→S0 transitions were also found to be the same for both deuterated and undeuterated substances (see ref. to Table 2).
The nature of series [6]: Solubility and polarity of the dyes.
The conditions of series [7]: 8 M urea solution; cited from earlier work.
Series [8] is described as follows: Chemical and storage stability of dyes and reactive derivatives. The settings on record: for stability in a solid state: under Ar; for chemical stability of the active ester: isolation and storage. The class given is physicochemical. The source says: Usually, amino- or thiol reactive derivatives of the fluorescent dyes are used for labelling of proteins. For conjugation with amines, the free carboxy group needs to be activated by the formation of N-hydroxy(sulfo)succinimidyl esters, phenyl esters with electron-acceptor groups in the benzene ring or similar compounds with good leaving groups. […] Ester 8 partly decomposed in the course of chromatographic isolation using silica gel. Therefore, the reaction mixture containing the active ester 8 was used for labelling the lipids in their non-polar domain and other coupling procedures. […] They were isolated by reversed-phase HPLC using the gradient elution with aqueous acetonitrile with 0.1% (v/v) of TFA, lyophilized and stored at −20° C. under argon. Under these conditions, the content of the corresponding acids 6/6D in the very light dark blue voluminous solids increased from 3-5% up to 7-10% in 2 months. The higher stability of the NHS esters 9 and 10 may be explained by the absence of any nucleophilic counter ion. The maleimide derivative 11 has been prepared straight from compounds 9 and 10 by combining them in DMF with Et3N as base. It was also isolated by HPLC.

Test in series [9]: as above
In kind it is physicochemical.

The structures appear in SMILES notation. “Also recorded” adds a separate entry of the source. Like-named read-outs stand apart in the source and are kept apart here.

`CC[N+]1=c2cc3c(cc2CCC1)=C(c1ccccc1C(=O)N(C)CCCC(=O)O)c1ccc(N(C)C)cc1C3(C)C` [Atto 633]: the “order of the photoresistance” value in series [1] is given as “Atto 633>Atto 647N>Alexa® 647>Alexa® 633>Cy® 5”. Further, the τfl in [2] (H2O) is listed as 3.2 (H2O) ns. Further, in [2] (no solvent given in the cell), the Φfl is 64%. In [2] (solvent H2O), the “ε · 10^−5” value was 1.3 M^−1 cm^−1, the “λmax (abs.)” value is reported as 629 nm and the “λmax (fl.)” value is given as 657 nm. Besides, in series [3], the “Solubility (solvents)” value is “DMF, DMSO,; also recorded: (H2O) MeCN^2”.
Consider `CC1=CC(C)(C)N2CCCc3c4c(cc1c32)C(c1c(F)c(F)c(F)c(F)c1C(=O)N(C)CCC(=O)OC(C)(C)C)=c1cc2c3c(c1O4)CCC[N+]=3C(C)(C)C=C2C` [Compound 5-tBu], for which, in series [4], the “ε · 10^−5” value stood at 0.92 M^−1 cm^−1, the “λmax (abs.)” value is 638 nm and the “λmax (fl.)” value is given as 661 nm. In [5], this compound returned a Φfl in water of 61%. Also, in [6], the “Solubility (solvents)” value is “DMF, THF, CHCl3;”; the polarity result is given as “non-polar”; the “solubility in organic solvents” value is given as “soluble in most organic solvents (except alkanes)”; the “solubility in water or aqueous buffers” value is reported as “insoluble in water”.
For the compound `CC1=CC(C)(C)N2CCCc3c4c(cc1c32)C(c1c(F)c(F)c(F)c(F)c1C(=O)[O-])=c1cc2c3c(c1O4)CCC[N+]=3C(C)(C)C=C2C` [Compound 4], in series [4], the “λmax (abs.)” value came out at 616 nm and the “λmax (fl.)” value is 641 nm. In series [5], this compound came in with a Φfl in water of 63%. In [7], the absorption maximum is given as 630 nm and the emission maximum is listed as 655 nm. In addition, in [6], the “Solubility (solvents)” value is recorded as “CHCl3, THF”; the polarity result is on record as “non-polar”; the “solubility in organic solvents” value is on record as “soluble in most organic solvents”; the “solubility in water or aqueous buffers” value is recorded as “low solubility in water or aqueous buffers; also recorded: insoluble in water”.
Take `CN(CCC(=O)NCCN1C(=O)C=CC1=O)C(=O)c1c(F)c(F)c(F)c(F)c1C1=c2cc3c4c(c2Oc2c1cc1c5c2CCCN5C(C)(C)C=C1CS(=O)(=O)O)CCC[N+]=4C(C)(C)C=C3CS(=O)(=O)O` [Compound 11]: the “stability in a solid state” value in [8] is on record as “stable”. For the same compound, in [9], the “stability in methanol or methanol-containing solutions” value is given as “decomposes; also recorded: sensitive to methanol even at room temperature”. Further, the “solubility in water or aqueous buffers” value in [6] is “soluble in water”.
As to `COC(=O)CCN(C)C(=O)c1c(F)c(F)c(F)c(F)c1C1=c2cc3c4c(c2Oc2c1cc1c5c2CCCN5C(C)(C)C=C1C)CCC[N+]=4C(C)(C)C=C3C` [Compound 5-Me], in series [4], the “ε · 10^−5” value turned out to be 0.66 M^−1 cm^−1, the “λmax (abs.)” value stood at 638 nm and the “λmax (fl.)” value came to 661.5 nm. The compound further displayed a Φfl in water in series [5] of 62%. Further, in [6], the “Solubility (solvents)” value is reported as “DMF, THF, CHCl3;”; the polarity entry is on record as “non-polar”; the “solubility in organic solvents” value is on record as “soluble in most organic solvents (except alkanes)”; the “solubility in water or aqueous buffers” value was “insoluble in water”.
Regarding `CC[N+]1=C(C=CC=CC=C2N(CCCCCC(=O)O)c3ccc(S(=O)(=O)O)cc3C2(C)C)C(C)(C)c2cc(S(=O)(=O)[O-])ccc21` [Cy ® 5], the “order of the photoresistance” value in series [1] is recorded as “Atto 633>Atto 647N>Alexa® 647>Alexa® 633>Cy® 5”. Also, the τfl in series [2] (H2O) was 0.9 (H2O)^1 ns. Further, in series [2] (PBS), the Φfl is on record as 27% and the τfl is reported as 1 (PBS)^11 ns. For the same compound, in series [2] (solvent H2O), the “ε · 10^−5” value is recorded as 2.5 M^−1 cm^−1, the “λmax (abs.)” value was 647 nm and the “λmax (fl.)” value is given as 663 nm.
For the compound `CC[N+](CCCS(=O)(=O)[O-])=c1ccc2c(C=CC=C3N(CCCCCC(=O)O)c4ccc(S(=O)(=O)[O-])cc4C3(C)C)cc(C(C)(C)C)oc-2c1.[Na+]` [DY-633], in [2] (solvent EtOH), the “ε · 10^−5” value was 2.0 M^−1 cm^−1. The “Solubility (solvents)” value in series [3] is given as “H2O, MeOH,; also recorded: DMF, DMSO”.
For the compound `CN(CCC(=O)ON1C(=O)CCC1=O)C(=O)c1c(F)c(F)c(F)c(F)c1C1=c2cc3c4c(c2Oc2c1cc1c5c2CCCN5C(C)(C)C=C1CS(=O)(=O)O)CCC[N+]=4C(C)(C)C=C3CS(=O)(=O)[O-]` [Compound 9], in series [8], the “chemical stability of the active ester” value was “remarkably stable” and the “stability in a solid state” value is “stable”. The “stability in aqueous solutions” value in series [9] (at RT) is listed as “decomposes”. In addition, the “solubility in water or aqueous buffers” value in series [6] is “soluble in water”.
For the compound `CC1=CC(C)(C)N2CCCc3c4c(cc1c32)C(c1c(F)c(F)c(F)c(F)c1C(=O)N(C)CCC(=O)O)=c1cc2c3c(c1O4)CCC[N+]=3C(C)(C)C=C2C` [Compound 5-H], the Stokes shift in series [4] (dyes of the invention) turned out to be 23 nm. In addition, in series [4], the “ε · 10^−5” value turned out to be 0.73 M^−1 cm^−1, the “λmax (abs.)” value amounted to 638 nm and the “λmax (fl.)” value was found to be 661.5 nm. The Φfl in water in series [5] worked out at 53%. Also, in series [6], the “Solubility (solvents)” value is given as “DMF, THF, CHCl3;”; the polarity entry is reported as “non-polar”; the “solubility in organic solvents” value is recorded as “moderately soluble in polar organic solvents; also recorded: very good”; the “solubility in water or aqueous buffers” value is reported as “very slightly soluble in water”.
As for `CC1=CC(C)(C)N2CCCc3c4c(cc1c32)C(c1c(F)c(F)c(F)c(F)c1C(=O)N(C)CCC(=O)Oc1c(F)c(F)cc(F)c1F)=c1cc2c3c(c1O4)CCC[N+]=3C(C)(C)C=C2C` [Compound 8], the “chemical stability of the active ester” value in series [8] is given as “Low chemical stability”.

Source of the values: patent publication US8580579B2, “Hydrophilic and lipophilic rhodamines for labelling and imaging” (Max-Planck-Gesellschaft zur Foerderung der Wissenschaften …, priority 2009, dated 2013).
